Patent publication US10947196B2, “Beta adrenergic agonist and methods of using the same” (CURASEN THERAPEUTICS, INC., priority 2019, dated 2021)
Read-outs that look alike come from different tables or passages of the source.

Assays:
[1] = Brain tissue binding, equilibrium dialysis (rat); format: in vitro ADME
Experimental: Thawing of the frozen brain tissue homogenate (stored at −80° C.). Frozen brain tissue homogenate was thawed immediately in a room temperature bath. Note: Only use brain tissue homogenate that has been thawed no more than once.
Preparation of working solutions. The working solutions of test compound and control compound propranolol were prepared in DMSO at the concentration of 200 μM. And then 4 μL of working solution was removed to mix with 796 μL of rat brain tissue homogenate to achieve a final concentration of 1 μM (0.5% DMSO). Brain tissue homogenate samples were vortexed thoroughly.
Preparation of dialysis membranes. The dialysis membranes were soaked in ultrapure water for 60 minutes to separate strips, then in 20% ethanol for 20 minutes, finally in dialysis buffer for 20 minutes.
Procedure for equilibrium dialysis. The dialysis apparatus was assembled according to the manufacturer's instruction. Each cell was filled with 150 μL of brain tissue homogenate sample and dialyzed against equal volume of dialysis buffer (PBS). The assay was performed in duplicate. The dialysis plate was sealed and incubated in an incubator at 37° C. with 5% CO2 at approximately 100 rpm for 6 hours. At the end of dialysis, seal was removed and 50 μL of samples from both buffer and brain tissue homogenate chambers were transferred into separate tubes in plate.
Procedure for sample analysis. 50 μL of brain tissue homogenate was added to each buffer samples and an equal volume of PBS was supplemented to the collected brain tissue homogenate sample. 400 μL of room temperature quench solution (acetonitrile containing internal standards (IS, 100 nM Alprazolam, 500 nM Labetalol and 2 μM Ketoprofen)) was added to precipitate protein. Samples in plate were vortexed for 5 minutes and centrifuged at 3,220 g for 30 minutes at room temperature. And then 100 μL of the supernatant was transferred to a new 96-well plate with 100 μL water for LC-MS/MS analysis.
Data analysis. All calculations were carried out using Microsoft Excel. […]
Fumeans=unbound fraction measured with brain tissue homogenate […]

[2] = Monkey pharmacokinetic studies; format: in vivo, male Non-Naïve Cynomolgus Monkeys; parameters: AUClast/D: unit not given here; details: PO 0.3 mg/kg; for AUC(0-inf) / AUC(0-t) / Cmax / Tmax / half-life / MRT inf: male, cynomolgus monkey; for MRT inf: read-out: MRTInf—obs
Experimental: (§1) The rat pharmacokinetics studies of exemplary compounds 03-3, 03-5, and 03-115 were conducted with male SD rats. These rats were typically about 6-8 weeks old, weighing 200 g to 300 g. Animals were fasted overnight and free access to food 4 hours after dosing. A required volume of vehicle was added to reach the target concentration of the test article and vehicle component to prepare for the dosing. The dosing vehicle was PEG400 or 30% PEG400 in saline for IV, or 0.5% methylcellulose in water for PO. For IV dosing, the animals were administered intravenously via tail vein. For PO dosing, the animals were administered via oral gavage. After dosing, blood sample was collected (˜0.2 mL per time point) through jugular vein or heart puncture. Blood of each sample was transferred into plastic micro centrifuge tubes containing EDTA-K2. Collection tubes with blood samples and anticoagulant were inverted several times for proper mixing of the tube contents and then placed on wet ice. The blood samples were centrifuged at 2000 g for 5 minutes at 4° C. to obtain plasma which was stored in a freezer at −75±15° C. prior to analysis. Samples were analyzed using LC-MS/MS. WinNonlin were used for pharmacokinetic calculations.
Monkey pharmacokinetics studies of exemplary compounds 03-3, 03-5, and 03-115 were conducted substantially similarly to the rat pharmacokinetic studies, instead using male Non-Naïve Cynomolgus Monkeys. Animals for PO studies were food fasted overnight prior to dosing and were fed approximately 2 hours after dosing. Animals for IV studies had free access to food and water. Blood samples were collected through venipuncture of peripheral veins except the dosing vein.

[3] = Mouse CNS exposure measurement (plasma, CSF, brain); format: in vivo, male C57BL/6J mice; details: male, C57BL/6J; for concentration at 100 min: PO 5 mg/kg; for concentration at 60 min: in vivo, sc, 1 mg/kg, SC 1 mg/kg
Experimental: as §1, with “These” for “The rat pharmacokinetics studies of exemplary compounds 03-3, 03-5, and 03-115 were conducted with male SD rats. These”
For CSF sampling, after anesthesia, the foramen magnum was exposed, and a syringe was used with a venoclysis needle to sample the CSF. The CSF samples were stored in polypropylene tubes, then stored in a freezer at −75±15° C. prior to analysis.
For brain sampling, the rats were fully exsanguinated by using a risen of carbon dioxide prior to brain collection. Brain samples were then collected at adopted time point, quick frozen and kept at −75±15° C. All brain samples were weighted and homogenated with PBS by brain weight (g) to PBS volume (mL) ratio 1:3 before analysis. The actual concentration is the detected value multiplied by the dilution factor.
These mice were typically about 6-8 weeks old, weighing 20 g to 30 g. Animals were free access to food before dosing. Sample amount was ˜0.03 mL per time point and sample site was dorsal metatarsal or heart puncture.

SMILES	fraction unbound at 6 h, 1 μM ([1]; rat, brain homogenate)	AUClast/D [2]	AUC—% Extrap—obs [2] [%]	F [2] [%]	AUC(0-inf) ([2]; plasma) [ng·h/mL]	AUC(0-t) ([2]; plasma) [ng·h/mL]	Cmax ([2]; plasma) [ng/mL]	Tmax ([2]; plasma) [h]	half-life ([2]; plasma) [h]	MRT inf ([2]; plasma) [h]	other results
CC(C)(C)NC[C@H](O)c1cccc(C(F)(F)F)n1 [Compound 03-3]	0.48	761	1.87	44.6	232	228	46.6	1	4.32	4.99	concentration at 100 min ([3]; CSF, po, 5 mg/kg, read-out: Concentration, CSF): 302 ng/mL; concentration at 100 min ([3]; brain, po, 5 mg/kg, read-out: Concentration, Brain): 988 ng/g; concentration at 100 min ([3]; plasma, po, 5 mg/kg, read-out: Concentration, Plasma): 557 ng/mL
Cc1ncccc1[C@@H](O)CNC(C)(C)C [Compound 03-115]				71							fraction unbound at 6 h, 1 μM ([1]; 1 μM, rat brain tissue homogenate, dialysis 6 hours, read-out: BTB (rat), percent of unbound fraction): 1; AUC(0-inf) ([2]; in vivo): 261 ng·h/mL; Cmax ([2]; in vivo): 67 ng/mL; Tmax ([2]; in vivo): 1.17 h; MRT inf ([2]; in vivo): 3.46 h; concentration at 60 min ([3]; read-out: Concentration, Brain): 280 ng/g; concentration at 60 min ([3]; read-out: Concentration, CSF): 157 ng/mL; concentration at 60 min ([3]; read-out: Concentration, Plasma): 270 ng/mL
CC(C)(C)NC[C@H](O)c1cccc(C#N)n1 [Compound 03-5, (S)-6-(2-(tert-butylamino)-1-hydroxyethyl)picolinonitrile]	0.95	1144	2.13	88.3	351	343	66.2	1	4.53	5.11	concentration at 100 min ([3]; CSF, read-out: Concentration, CSF): 621 ng/mL; concentration at 100 min ([3]; brain, read-out: Concentration, Brain): 989 ng/g; concentration at 100 min ([3]; plasma, read-out: Concentration, Plasma): 1340 ng/mL
